According to US12419824B2, “Compounds useful for the treatment and/or care of the skin, hair, nails and/or mucous membranes” (Lubrizol Advanced Materials, Inc., priority 2019, dated 2025):

Tests used:
[1] = tested on: Muscle bind like protein 1 (MBNL1); test: MBNL1 quantification in human skeletal muscle cells by TR-FRET (Examples 7, 19); type: cell-based; conditions: hSkMc, 0.5 mg/mL, as Example 7, versus basal control
Method: MBNL1 induction by the peptides of the invention is evaluated by a Time resolved fluorescence resonance energy transfer (TR-FRET) assay. The aim of this study is to investigate the capacity of peptide candidates to increase MBNL1 in human skeletal muscle cells (hSkMc).
(§1) hSkMc (Innoprot) are seeded in 12-well plates at a density of 1.5×10^4 cells/well in Skeletal Muscle Cell Growth Medium (Promocell). After 72 hours incubation, medium is removed and replaced with Skeletal Muscle Cell Differentiation Medium (Promocell). 48 hours after beginning cell differentiation, fresh differentiation medium with 0.5 mg/ml of test items is added. Treatment is continued for 48 hours and non-treated cells are used as basal control. After 48 hours of treatment, cell medium is removed and added cell lysis buffer to wells. Immediately, plates are kept at −80° C. in order to improve protein extraction during the defrosting process. After 72 hours, cells are lysated by shaking the plates in an orbital rotor at room temperature for 45 minutes. Next, cell lysates are collected and assayed to quantify the level of MBNL1 protein and total protein concentration.
(§2) MBNL1 protein levels measurement is performed with Human MBNL1 Assay Kit (Cisbio) according to the manufacturer's protocol. Briefly, the kit is used to perform a TR-FRET for MBNL1 quantification. The protein is detected with the antibodies provided in the kit and quantified by a fluorescence measurement. The quantification is carried out by using a microplate reader (ClarioStar, BMG) set to 665 nm and 620 nm.
(§3) Total protein concentration of cell lysate is determined by using Pierce BCA Protein Assay Kit™ (Thermo Scientific) according to manufacturer's protocol. In brief, after adding Working Reagent to the samples and the standards, the samples are incubated. Afterwards, color change is measured with an absorbance microplate reader (Clariostar™, BMG) at 562 nm. The total protein amount is used to normalize the level of MBNL1 protein concentration obtained by the TR-FRET test in the samples.
Different peptides of the invention are tested as disclosed in Example 7 at 0.5 mg/mL.

[2] = tested on: Muscle bind like protein 1 (MBNL1); test: MBNL1 quantification by TR-FRET in hSkMc from TEBU-BIO (Example 20); type: cell-based, human; conditions: 0.5 mg/ml, versus basal control
Method: as §1, §2, §3
The assay is performed as disclosed in Example 7 except that hSkMc from TEBU-BIO (Barcelona, Spain) are used. Different peptides of the invention are tested at a concentration of 0.5 mg/ml.

Row | Substance | % MBNL1 [1] [%] | % MBNL1 [2] [%]
1 | Ac-Ala-Asp-Val-Tyr-Lys-NH2 (Ac-ADVYK-NH2) [PEP14] | 145.0 | 
2 | Ac-Ala-Leu-Lys-Pro-Asn-Thr-OH (Ac-ALKPNT-OH) [PEP27] |  | 126.1
3 | Ac-Asn-Val-Tyr-Lys-NH2 (Ac-NVYK-NH2) [PEP11] | 145.2 | 
4 | Ac-Asp-Ile-Tyr-Lys-NH2 (Ac-DIYK-NH2) [PEP8] | 190.4 | 
5 | Ac-Asp-Leu-Tyr-Lys-NH2 (Ac-DLYK-NH2) [PEP12] | 154.4 | 
6 | Ac-Asp-Val-Phe-Lys-NH2 (Ac-DVFK-NH2) [PEP9] | 134.2 | 
7 | Ac-Asp-Val-Tyr-Arg-NH2 (Ac-DVYR-NH2) [PEP10] | 158.3 | 
8 | Ac-Asp-Val-Tyr-Lys-Ala-NH2 (Ac-DVYKA-NH2) [PEP15] | 145.2 | 
9 | Ac-Asp-Val-Tyr-Lys-OH (Ac-DVYK-OH) [PEP4] | 378.5 | 
10 | Ac-Glu-Ile-Phe-Arg-NH2 (Ac-EIFR-NH2) [PEP24] | 117.5 | 
11 | Ac-Glu-Ile-Tyr-Arg-NH2 (Ac-EIYR-NH2) [PEP23] | 181.4 | 
12 | Ac-Glu-Ile-Tyr-Lys-NH2 (Ac-EIYK-NH2) [PEP20] | 214.2 | 
13 | Ac-Glu-Val-Tyr-Lys-NH2 (Ac-EVYK-NH2) [PEP7] | 141.5 | 
14 | H-Ala-Ile-Arg-Pro-Asn-Thr-NH2 (H-AIRPNT-NH2) [PEP44] |  | 240.6
15 | H-Ala-Leu-Arg-Pro-Asn-Thr-NH2 (H-ALRPNT-NH2) [PEP30] |  | 181.3
16 | H-Ala-Leu-Lys-Pro-Asn-NH2 (H-ALKPN-NH2) [PEP41] |  | 138.4
17 | H-Ala-Leu-Lys-Pro-Gln-Thr-NH2 (H-ALKPQT-NH2) [PEP50] |  | 119.4
18 | H-Ala-Leu-Lys-Val-Asn-Thr-NH2 (H-ALKVNT-NH2) [PEP31] |  | 120.0
19 | H-Asp-Val-Tyr-Lys-NH2 (H-DVYK-NH2) [PEP5] | 261.4 | 
20 | H-Gly-Ile-Lys-Pro-Asn-Thr-NH2 (H-GIKPNT-NH2) [PEP42] |  | 114.2
21 | H-Gly-Val-Arg-Pro-Asn-Thr-NH2 (H-GVRPNT-NH2) [PEP46] |  | 182.1
22 | H-Leu-Lys-Pro-Asn-Thr-NH2 (H-LKPNT-NH2) [PEP40] |  | 117.3
23 | Palm-Asp-Val-Tyr-Lys-NH2 (DVYK; HELM PEPTIDE1{[CCCCCCCCCCCCCCCC(=O)[*:2]].D.V.Y.K.[am]}$$$$V2.0; SMILES CCCCCCCCCCCCCCCC(=O)N[C@@H](CC(=O)O)C(=O)N[C@H](C(=O)N[C@@H](Cc1ccc(O)cc1)C(=O)N[C@@H](CCCCN)C(N)=O)C(C)C) [PEP3] | 127.7 | 
24 | Palm-Glu-Val-Tyr-Lys-NH2 (EVYK; HELM PEPTIDE1{[CCCCCCCCCCCCCCCC(=O)[*:2]].E.V.Y.K.[am]}$$$$V2.0; SMILES CCCCCCCCCCCCCCCC(=O)N[C@@H](CCC(=O)O)C(=O)N[C@H](C(=O)N[C@@H](Cc1ccc(O)cc1)C(=O)N[C@@H](CCCCN)C(N)=O)C(C)C) [PEP13] | 147.2 | 
